# Measured values from patent US8071797B2 (priority 2008, dated 2011).
# Biological target: T1, HCV polymerase (NS5B570n-Con1) (Hepatitis C virus genotype 1b, UniProt Q9WMX2)
# T1 construct: contains a 21 amino acid deletion at the C-terminus relative to the full-length HCV polymerase; 6-histidine (N); made in house; host or cells: E. coli BL21 (DE) pLysS
# Experiment: HCV NS5B RNA polymerase activity assay
# Format: biochemical, HCV Con1 strain
# Conditions: IC50 NS5B polymerase assay, Table I
# Method: The enzymatic activity of HCV polymerase (NS5B570n-Con1) was measured as the incorporation of radiolabeled nucleotide monophosphates into acid insoluble RNA products. Unincorporated radiolabeled substrate was removed by filtration and scintillant was added to the washed and dried filter plate containing radiolabeled RNA product. The amount of RNA product generated by NS5B570-Con1 at the end of the reaction was directly proportional to the amount of light emitted by the scintillant.
# The N-terminal 6-histidine tagged HCV polymerase, derived from HCV Con1 strain, genotype 1b (NS5B570n-Con1) contains a 21 amino acid deletion at the C-terminus relative to the full-length HCV polymerase and was purified from E. coli strain BL21 (DE) pLysS. The construct, containing the coding sequence of HCV NS5B Con1 (GenBank accession number AJ242654) was inserted into the plasmid construct pETI 7b, downstream of a T7 promoter expression cassette and transformed into E. coli. A single colony was grown overnight as a starter culture and later used inoculate 10 L of LB media supplemented with 100 μg/mL ampicillin at 37° C. Protein expression was induced by the addition of 0.25 mM isopropyl-β-D-thiogalactopyranoside (IPTG) when optical density at […] of the culture was between 0.6 and 0.8 and cells were harvested after 16 to 18 h at 30° C. NS5B570n-Con1 was purified to homogeneity using a three-step protocol including subsequent column chromatography on Ni-NTA, SP-Sepharose HP and Superdex 75 resins.
# Each 50 μl enzymatic reaction contained 20 nM RNA template derived from the complementary sequence of the Internal Ribosome Entry Site (cIRES), 20 nM NS5B570n-Con1 enzyme, 0.5 μCi of tritiated UTP (Perkin Elmer catalog no. TRK-412; specific activity: 30 to 60 Ci/mmol; stock solution concentration from 7.5×10^-5 M to 20.6×10^-6 M), 1 μM each ATP, CTP, and GTP, 40 mM Tris-HCl pH 8.0, 40 mM NaCl, 4 mM DTT (dithiothreitol), 4 mM MgCl2, and 5 μl of compound serial diluted in DMSO. Reaction mixtures were assembled in 96-well filter plates (cat #MADVN0B, Millipore Co.) and incubated for 2 h at 30° C. Reactions were stopped by addition of 10% final (v/v) trichloroacetic acid and incubated for 40 min at 4° C. Reactions were filtered, washed with 8 reaction volumes of 10% (v/v) trichloroacetic acetic acid, 4 reaction volumes of 70% (v/v) ethanol, air dried, and 25 μl of scintillant (Microscint 20, Perkin-Elmer) was added to each reaction well.
# The amount of light emitted from the scintillant was converted to counts per minute (CPM) on a Topcount® plate reader (Perkin-Elmer, Energy Range: Low, Efficiency Mode Normal, Count Time: 1 min, Background Subtract: none, Cross talk reduction: Off).
# Data was analyzed in Excel® (Microsoft®) and ActivityBase® (idbsg). The reaction in the absence of enzyme was used to determine the background signal, which was subtracted from the enzymatic reactions. Positive control reactions were performed in the absence of compound, from which the background corrected activity was set as 100% polymerase activity. All data was expressed as a percentage of the positive control. The compound concentration at which the enzyme-catalyzed rate of RNA synthesis was reduced by 50% (IC50) was calculated by fitting
# [formula] equation (t) to the data.where “Y” corresponds to the relative enzyme activity (in %), “% Min” is the residual relative activity at saturating compound concentration, “% Max” is the relative maximum enzymatic activity, “X” corresponds to the compound concentration, and “S” is the Hill coefficient (or slope).
row,SMILES,IC50
1,CNC(=O)c1c(-c2ccc(Nc3ccc(C(C)C)cc3)cc2)oc2cc(N(CCO)S(C)(=O)=O)c(OC)cc12 [Compound I-6],544 nM
2,"CNC(=O)c1c(-c2ccc(Oc3ccc(F)cc3)cc2)oc2cc(N(CCO)S(C)(=O)=O)c(C3CC3)cc12 [Compound I-32, 5-Cyclopropyl-2-[4-(4-fluoro-phenoxy)-phenyl]-6-[(2-hydroxy-ethyl)-methanesulfonyl-amino]-benzofuran-3-carboxylic acid methylamide]",60 nM
3,CNC(=O)c1c(-c2ccc(Oc3ccccc3)cc2)oc2cc(N(CCO)S(C)(=O)=O)c(C3CC3)cc12 [Compound I-33],21 nM
4,CNC(=O)c1c(-c2ccc(Oc3ccc(F)cc3)cc2)oc2cc(NS(C)(=O)=O)c(C3CC3)cc12 [Compound I-40],98 nM
5,"CNC(=O)c1c(-c2ccc(Oc3ccc(F)cc3)cc2)oc2cc(N(CCO)S(C)(=O)=O)ccc12 [Compound I-64, 2-[4-(4-Fluoro-phenoxy)-phenyl]-6-[(2-hydroxy-ethyl)-methanesulfonyl-amino]-benzofuran-3-carboxylic acid methylamide]",415 nM
6,"CNC(=O)c1c(-c2ccc(Oc3ccc(F)cc3)cc2)oc2cc(N(CC(O)CN)S(C)(=O)=O)c(C3CC3)cc12 (centres unmarked) [Compound I-97, 6-[(3-Amino-2-hydroxy-propyl)-methanesulfonyl-amino]-5-cyclopropyl-2-[4-(4-fluoro-phenoxy)-phenyl]-benzofuran-3-carboxylic acid methylamide]",48 nM
7,"CNC(=O)c1c(-c2ccc(Oc3ccc(F)cc3)cc2)oc2cc(N(C3CCC(N)CC3)S(C)(=O)=O)c(C3CC3)cc12 (centres unmarked) [Compound I-98, 6-[(4-Amino-cyclohexyl)-methanesulfonyl-amino]-5-cyclopropyl-2-[4-(4-fluoro-phenoxy)-phenyl]-benzofuran-3-carboxylic acid methylamide]",44 nM
8,CNC(=O)c1c(-c2ccc(Oc3ccc(F)cc3)cc2)oc2cc(N([C@H]3CC[C@@H](O)CC3)S(C)(=O)=O)c(C3CC3)cc12 [Compound I-99],23 nM
9,CNC(=O)c1c(-c2ccc(Oc3ccc(F)cc3)cc2)oc2cc(N([C@H]3CC[C@H](O)CC3)S(C)(=O)=O)c(C3CC3)cc12 [Compound I-100],25 nM
10,CNC(=O)c1c(-c2ccc(Oc3ccccc3)cc2)oc2cc(-c3c(C)n[nH]c3C)c(C3CC3)cc12 [Compound I-101],318 nM
11,CNC(=O)c1c(-c2ccc(Oc3ccc(F)cc3)cc2)oc2cc(C(C)(C)O)c(OC)cc12 [Compound I-103],37 nM
12,CNC(=O)c1c(-c2ccc(Oc3ccc(F)cc3)cc2)oc2cc(N(CCCO)S(C)(=O)=O)c(C3CC3)cc12 [Compound I-106],18 nM
13,CNC(=O)c1c(-c2ccc(Oc3ccc(F)cc3)cc2)oc2cc(N(CC3COC(=O)N3)S(C)(=O)=O)c(C3CC3)cc12 (centres unmarked) [Compound I-108],26 nM
14,"CNC(=O)c1c(-c2ccc(Oc3ccc(F)cc3)cc2)oc2cc(C3CCCN3C(C)=O)c(OC)cc12 (centres unmarked) [Compound I-109, 6-(1-acetyl-pyrrolidin-2-yl)-2-[4-(4-fluoro-phenoxy)-phenyl]-5-methoxy-benzofuran-3-carboxylic acid methylamide]",44 nM
15,"CNC(=O)c1c(-c2ccc(Oc3ccc(F)cc3)cc2)oc2cc(C(C)(C)O)c(C3CC3)cc12 [Compound I-110, 5-Cyclopropyl-2-[4-(4-fluoro-phenoxy)-phenyl]-6-(1-hydroxy-1-methyl-ethyl)-benzofuran-3-carboxylic acid methylamide]",39 nM
16,"CNC(=O)c1c(-c2ccc(Oc3ccc(F)cc3)cc2)oc2cc(C3CCCN3)c(OC)cc12 (centres unmarked) [Compound I-111, 2-[4-(4-Fluoro-phenoxy)-phenyl]-5-methoxy-6-pyrrolidin-2-yl-benzofuran-3-carboxylic acid methylamide]",933 nM
17,"CNC(=O)c1c(-c2ccc(Oc3ccc(F)cc3)cc2)oc2cc(C3CCCN3S(C)(=O)=O)c(OC)cc12 (centres unmarked) [Compound I-112, 2-[4-(4-Fluoro-phenoxy)-phenyl]-6-(1-methanesulfonyl-pyrrolidin-2-yl)-5-methoxy-benzofuran-3-carboxylic acid methylamide]",349 nM
18,CNC(=O)c1c(-c2ccc(Oc3ccc(F)cc3)cc2)oc2cc(N(CCCSC)S(C)(=O)=O)c(C3CC3)cc12 [Compound I-113],18 nM
19,CNC(=O)c1c(-c2ccc(Oc3ccc(F)cc3)cc2)oc2cc(N(CCCS(C)(=O)=O)S(C)(=O)=O)c(C3CC3)cc12 [Compound I-114],21 nM
20,"CNC(=O)c1c(-c2ccc(Oc3ccc(F)cc3)cc2)oc2cc(N(CC(F)(F)CN)S(C)(=O)=O)c(C3CC3)cc12 [Compound I-115, 6-[(3-Amino-2,2-difluoro-propyl)-methanesulfonyl-amino]-5-cyclopropyl-2-[4-(4-fluoro-phenoxy)-phenyl]-benzofuran-3-carboxylic acid methylamide]",29 nM
21,CNC(=O)c1c(-c2ccc(Oc3ccc(F)cc3)cc2)oc2cc(N(CCCN(C)S(C)(=O)=O)S(C)(=O)=O)c(C3CC3)cc12 [Compound I-117],11 nM
22,CNC(=O)c1c(-c2ccc(Oc3ccc(F)cc3)cc2)oc2cc(N(CCCS(N)(=O)=O)S(C)(=O)=O)c(C3CC3)cc12 [Compound I-118],7 nM
23,"CNC(=O)c1c(-c2ccc(Oc3ccc(F)cc3)cc2)oc2cc(N(CCS(N)(=O)=O)S(C)(=O)=O)c(C3CC3)cc12 [Compound I-119, 5-Cyclopropyl-2-[4-(4-fluoro-phenoxy)-phenyl]-6-[methanesulfonyl-(2-sulfamoyl-ethyl)-amino]-benzofuran-3-carboxylic acid methylamide]",14 nM
24,"CNC(=O)c1c(-c2ccc(Oc3ccc(F)cc3)cc2)oc2cc(N(CC[S+](C)[O-])S(C)(=O)=O)c(C3CC3)cc12 (centres unmarked) [Compound I-120, 5-Cyclopropyl-2-[4-(4-fluoro-phenoxy)-phenyl]-6-[(2-methanesulfinyl-ethyl)-methanesulfonyl-amino]-benzofuran-3-carboxylic acid methylamide]",19 nM
25,CNC(=O)c1c(-c2ccc(Oc3ccc(F)cc3)cc2)oc2cc(N(CCC[S+](C)[O-])S(C)(=O)=O)c(C3CC3)cc12 (centres unmarked) [Compound I-121],5 nM
26,CNC(=O)c1c(-c2ccc(Nc3cccnc3)cc2)oc2cc(N(CCO)S(C)(=O)=O)c(OC)cc12 [Compound I-122],2050 nM
27,CNC(=O)c1c(-c2ccc(Nc3ccc(F)cn3)cc2)oc2cc(N(CCO)S(C)(=O)=O)c(OC)cc12 [Compound I-124],195 nM
28,"CNC(=O)c1c(-c2ccc(Oc3ccc(F)cc3)nc2)oc2cc(N(CCO)S(C)(=O)=O)c(OC)cc12 [Compound I-125, 2-[6-(4-Fluoro-phenoxy)-pyridin-3-yl]-6-[(2-hydroxy-ethyl)-methanesulfonyl-amino]-5-methoxy-benzofuran-3-carboxylic acid methylamide]",490 nM
29,"CNC(=O)c1c(-c2ccc(Nc3ccc(F)cc3)nc2)oc2cc(N(CCO)S(C)(=O)=O)c(OC)cc12 [Compound I-126, 2-[6-(4-Fluoro-phenylamino)-pyridin-3-yl]-6-[(2-hydroxy-ethyl)-methanesulfonyl-amino]-5-methoxy-benzofuran-3-carboxylic acid methylamide]",468 nM
30,"CNC(=O)c1c(-c2ccc(Oc3ccccn3)cc2)oc2cc(N(CCO)S(C)(=O)=O)c(OC)cc12 [Compound I-127, 6-[(2-Hydroxy-ethyl)-methanesulfonyl-amino]-5-methoxy-2-[4-(pyridin-2-yloxy)-phenyl]-benzofuran-3-carboxylic acid methylamide]",611 nM

# System: not given
# Experiment: not given
# Conditions: not given
row,SMILES,melting point
1,CNC(=O)c1c(-c2ccc(Nc3ccc(C(C)C)cc3)cc2)oc2cc(N(CCO)S(C)(=O)=O)c(OC)cc12 [Compound I-6],223.9 to 234.5 °C
2,"CNC(=O)c1c(-c2ccc(Oc3ccc(F)cc3)cc2)oc2cc(N(CCO)S(C)(=O)=O)c(C3CC3)cc12 [Compound I-32, 5-Cyclopropyl-2-[4-(4-fluoro-phenoxy)-phenyl]-6-[(2-hydroxy-ethyl)-methanesulfonyl-amino]-benzofuran-3-carboxylic acid methylamide]",110 to 115 °C
3,CNC(=O)c1c(-c2ccc(Oc3ccccc3)cc2)oc2cc(N(CCO)S(C)(=O)=O)c(C3CC3)cc12 [Compound I-33],110 to 115 °C
4,CNC(=O)c1c(-c2ccc(Oc3ccc(F)cc3)cc2)oc2cc(NS(C)(=O)=O)c(C3CC3)cc12 [Compound I-40],169 to 170 °C
5,"CNC(=O)c1c(-c2ccc(Oc3ccc(F)cc3)cc2)oc2cc(N(CCO)S(C)(=O)=O)ccc12 [Compound I-64, 2-[4-(4-Fluoro-phenoxy)-phenyl]-6-[(2-hydroxy-ethyl)-methanesulfonyl-amino]-benzofuran-3-carboxylic acid methylamide]",214.6 to 215.7 °C
